# Data: ChEMBL document CHEMBL1201862, “PubChem BioAssay data set” (2004)
# Active and inactive are the calls of the source.
# Tests used:
# [1] = tested on: H9c2; test: cells; type: functional, cell-based; conditions: Rattus norvegicus, H9c2, Myocardium;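 further: confirmatory concentration-response retest of ultra-high-throughput screening hits for modulation of myocardial damage; cell death induced by hydrogen peroxide oxidative stress; compound pretreatment for 60 min then peroxide exposure for 2 h; potency is for protecting the cells against peroxide damage rather than for killing them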
# [2] = target: T1, Corticotropin-releasing factor receptor 2/Corticotropin-releasing factor-binding protein (Homo sapiens, UniProt P24387+Q13324); test: Dose Response confirmation of uHTS hits for small molecule antagonists of the CRF-binding protein and CRF-R2 receptor complex.; type: functional; conditions: read-out: IC50_Mean
# T1 sequence (Q13324 whole entry): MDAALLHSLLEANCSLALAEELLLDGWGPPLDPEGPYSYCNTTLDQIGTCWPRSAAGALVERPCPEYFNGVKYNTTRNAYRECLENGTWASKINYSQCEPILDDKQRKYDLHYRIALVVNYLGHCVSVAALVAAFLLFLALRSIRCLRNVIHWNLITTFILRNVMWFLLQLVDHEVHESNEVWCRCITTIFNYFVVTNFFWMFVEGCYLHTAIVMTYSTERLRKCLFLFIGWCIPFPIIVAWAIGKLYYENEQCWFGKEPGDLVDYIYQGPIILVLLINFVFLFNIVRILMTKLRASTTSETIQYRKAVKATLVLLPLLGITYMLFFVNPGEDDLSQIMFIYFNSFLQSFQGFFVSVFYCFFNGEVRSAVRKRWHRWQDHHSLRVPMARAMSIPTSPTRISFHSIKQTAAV
# T1 sequence (P24387 whole entry): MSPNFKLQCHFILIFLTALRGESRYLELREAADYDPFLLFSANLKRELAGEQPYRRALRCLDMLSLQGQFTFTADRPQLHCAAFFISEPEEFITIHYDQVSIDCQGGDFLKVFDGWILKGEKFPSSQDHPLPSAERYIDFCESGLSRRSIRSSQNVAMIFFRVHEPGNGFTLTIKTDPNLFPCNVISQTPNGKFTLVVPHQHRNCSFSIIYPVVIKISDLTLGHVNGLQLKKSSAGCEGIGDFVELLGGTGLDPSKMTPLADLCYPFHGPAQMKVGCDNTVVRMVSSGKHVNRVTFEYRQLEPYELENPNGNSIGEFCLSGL
# [3] = target: T1, Corticotropin-releasing factor receptor 2/Corticotropin-releasing factor-binding protein; test: activators of CRF receptor 2 with binding protein – uHTS hits, confirmation (AID 602473); type: functional; conditions: read-out: EC50_Mean
# [4] = viability of uninfected HEp-2 cells – cell-based, HTS, cytotoxicity control for RSV inhibitor project, dose response (AID 2410); type: functional; conditions: human respiratory syncytial virus
# [5] = target: FAD-linked sulfhydryl oxidase ALR (Homo sapiens, UniProt P55789); test: ALR-catalysed DTT oxidation blockers – biochemical, H2O2 detection, luminescence, cherry-pick, dose response (AID 493248)
# [6] = target: Cytochrome P450 2C9 (Homo sapiens, UniProt P11712)
# [7] = target: Cytochrome P450 2D6 (Homo sapiens, UniProt P10635);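 further: CYP2D6 member of a cytochrome P450 panel assay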
# [8] = target: Cytochrome P450 2C19 (Homo sapiens, UniProt P33261); test: Cytochrome panel assay with activity outcomes. Panel member name: p450-cyp2c19 Compounds with AC50 equal or less than 10 uM are considered active; type: functional; conditions: read-out: AC50
# [9] = target: Cytochrome P450 3A4 (Homo sapiens, UniProt P08684);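 further: CYP3A4 tested as one member of a cytochrome P450 panel screen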
# [10] = target: T2, Cytochrome P450 1A2 (Homo sapiens, UniProt P05177);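 further: PubChem cytochrome P450 panel assay, CYP1A2 panel member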
# T2 sequence (P05177 whole entry): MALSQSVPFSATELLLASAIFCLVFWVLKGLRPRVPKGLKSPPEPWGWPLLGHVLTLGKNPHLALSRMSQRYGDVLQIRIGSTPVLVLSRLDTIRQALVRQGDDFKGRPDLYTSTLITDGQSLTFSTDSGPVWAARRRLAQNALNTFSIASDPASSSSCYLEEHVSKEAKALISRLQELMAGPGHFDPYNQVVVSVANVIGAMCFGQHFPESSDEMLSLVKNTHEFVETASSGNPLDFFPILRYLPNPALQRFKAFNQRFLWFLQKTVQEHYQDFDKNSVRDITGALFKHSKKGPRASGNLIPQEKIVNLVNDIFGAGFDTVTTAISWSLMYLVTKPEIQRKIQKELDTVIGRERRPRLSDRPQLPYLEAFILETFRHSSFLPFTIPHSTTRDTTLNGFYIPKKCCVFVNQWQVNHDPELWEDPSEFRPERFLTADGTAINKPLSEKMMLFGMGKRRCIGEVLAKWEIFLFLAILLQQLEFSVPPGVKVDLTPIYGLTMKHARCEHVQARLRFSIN
# [11] = fluconazole-exposed Candida albicans growth modulators – fluorescence, retest, confirmation (AID 2467); type: functional, cell-based
# [12] = NIH-3T3 fibroblast cytotoxicity, dose response, cytotoxicity control, cell-based, fluorescence, Alamar Blue, secondary assay (AID 2327); type: functional;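 further: NIH-3T3 mouse fibroblasts cultured with fluconazole at 8 µg/mL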
# [13] = tested on: INS1; test: INS-1E survival protection against cytokine death – cell-based, luminescence, retest, dose response (AID 449756); type: functional; conditions: Rattus norvegicus;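 further: cell death triggered by IL-1 beta plus TNF-alpha plus IFN-gamma mixture; protective hits raise ATP signal compared with cytokine alone wells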
# [14] = P. falciparum Dd2 growth inhibitors, dose response, SYBR Green, cherry-picked samples (AID 1159567); type: functional, cell-based
# [15] = target: T3, Rac GTPase-activating protein 1 (Homo sapiens, UniProt Q9H0H5); test: blockers of MgcRacGAP-driven Rac1 GTP hydrolysis – biochemical, ADP Hunter fluorescence, primary and confirmatory, confirmation (AID 624330); type: functional
# T3 sequence (Q9H0H5 whole entry): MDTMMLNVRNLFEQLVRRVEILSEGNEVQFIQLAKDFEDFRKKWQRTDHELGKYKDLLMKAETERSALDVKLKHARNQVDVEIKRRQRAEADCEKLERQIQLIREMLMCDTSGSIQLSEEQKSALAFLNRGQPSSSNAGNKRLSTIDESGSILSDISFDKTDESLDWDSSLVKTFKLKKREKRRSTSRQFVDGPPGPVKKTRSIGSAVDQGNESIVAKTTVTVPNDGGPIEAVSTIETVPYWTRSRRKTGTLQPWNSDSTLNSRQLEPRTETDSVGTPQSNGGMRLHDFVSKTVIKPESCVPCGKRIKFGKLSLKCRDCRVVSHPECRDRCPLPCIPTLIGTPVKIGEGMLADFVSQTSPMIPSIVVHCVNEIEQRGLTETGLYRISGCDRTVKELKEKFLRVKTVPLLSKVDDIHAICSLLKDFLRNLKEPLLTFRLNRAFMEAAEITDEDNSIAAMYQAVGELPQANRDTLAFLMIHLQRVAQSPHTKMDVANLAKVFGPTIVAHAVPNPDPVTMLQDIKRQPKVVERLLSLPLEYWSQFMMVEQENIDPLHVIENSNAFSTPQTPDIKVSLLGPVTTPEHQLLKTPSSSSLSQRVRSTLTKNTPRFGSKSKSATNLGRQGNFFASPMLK
# FAD-linked sulfhydryl oxidase ALR, sequence (P55789 whole entry): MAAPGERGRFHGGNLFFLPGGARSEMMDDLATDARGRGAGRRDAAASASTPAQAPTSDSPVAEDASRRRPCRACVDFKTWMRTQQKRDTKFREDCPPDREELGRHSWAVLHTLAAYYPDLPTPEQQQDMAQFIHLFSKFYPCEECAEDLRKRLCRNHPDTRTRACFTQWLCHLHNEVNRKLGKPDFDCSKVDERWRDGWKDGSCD
# Cytochrome P450 3A4, sequence (P08684 whole entry): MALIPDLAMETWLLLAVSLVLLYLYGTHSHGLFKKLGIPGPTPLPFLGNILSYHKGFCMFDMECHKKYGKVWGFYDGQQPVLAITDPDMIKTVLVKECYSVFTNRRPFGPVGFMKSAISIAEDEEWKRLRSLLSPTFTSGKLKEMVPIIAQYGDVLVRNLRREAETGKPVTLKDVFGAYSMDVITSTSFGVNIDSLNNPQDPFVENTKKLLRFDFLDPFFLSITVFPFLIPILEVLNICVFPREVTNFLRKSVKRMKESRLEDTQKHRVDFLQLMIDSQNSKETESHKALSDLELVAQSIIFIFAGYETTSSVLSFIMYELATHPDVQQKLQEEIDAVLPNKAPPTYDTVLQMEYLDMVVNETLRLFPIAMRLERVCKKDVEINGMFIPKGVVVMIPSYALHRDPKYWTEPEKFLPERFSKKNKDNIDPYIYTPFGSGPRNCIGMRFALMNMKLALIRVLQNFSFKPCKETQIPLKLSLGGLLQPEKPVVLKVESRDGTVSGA
# Cytochrome P450 2D6, sequence (P10635 whole entry): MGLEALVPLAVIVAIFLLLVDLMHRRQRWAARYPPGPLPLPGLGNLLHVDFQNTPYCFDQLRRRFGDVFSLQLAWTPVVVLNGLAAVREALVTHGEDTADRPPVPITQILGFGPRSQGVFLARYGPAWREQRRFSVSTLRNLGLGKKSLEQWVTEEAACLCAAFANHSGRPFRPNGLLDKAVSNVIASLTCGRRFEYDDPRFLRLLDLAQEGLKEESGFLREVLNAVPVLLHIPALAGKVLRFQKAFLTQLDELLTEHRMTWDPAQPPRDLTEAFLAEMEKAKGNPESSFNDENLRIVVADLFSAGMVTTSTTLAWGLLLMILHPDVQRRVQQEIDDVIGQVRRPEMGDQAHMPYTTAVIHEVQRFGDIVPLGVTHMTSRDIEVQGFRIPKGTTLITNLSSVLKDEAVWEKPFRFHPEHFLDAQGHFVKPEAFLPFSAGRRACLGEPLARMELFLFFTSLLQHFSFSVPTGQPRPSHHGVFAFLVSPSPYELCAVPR
# Cytochrome P450 2C19, sequence (P33261 whole entry): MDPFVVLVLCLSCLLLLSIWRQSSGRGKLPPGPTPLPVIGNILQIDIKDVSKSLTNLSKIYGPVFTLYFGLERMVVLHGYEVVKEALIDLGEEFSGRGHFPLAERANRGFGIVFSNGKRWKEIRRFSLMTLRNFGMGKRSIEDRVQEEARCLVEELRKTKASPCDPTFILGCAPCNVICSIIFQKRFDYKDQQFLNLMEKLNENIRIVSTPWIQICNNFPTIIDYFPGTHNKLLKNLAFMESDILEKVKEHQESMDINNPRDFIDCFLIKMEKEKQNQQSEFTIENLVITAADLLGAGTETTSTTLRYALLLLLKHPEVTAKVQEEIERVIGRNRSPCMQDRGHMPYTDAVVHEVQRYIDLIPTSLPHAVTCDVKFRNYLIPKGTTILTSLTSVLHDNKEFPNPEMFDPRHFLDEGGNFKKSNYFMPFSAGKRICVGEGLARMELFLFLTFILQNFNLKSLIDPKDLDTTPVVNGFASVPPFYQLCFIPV
# Cytochrome P450 2C9, sequence (P11712 whole entry): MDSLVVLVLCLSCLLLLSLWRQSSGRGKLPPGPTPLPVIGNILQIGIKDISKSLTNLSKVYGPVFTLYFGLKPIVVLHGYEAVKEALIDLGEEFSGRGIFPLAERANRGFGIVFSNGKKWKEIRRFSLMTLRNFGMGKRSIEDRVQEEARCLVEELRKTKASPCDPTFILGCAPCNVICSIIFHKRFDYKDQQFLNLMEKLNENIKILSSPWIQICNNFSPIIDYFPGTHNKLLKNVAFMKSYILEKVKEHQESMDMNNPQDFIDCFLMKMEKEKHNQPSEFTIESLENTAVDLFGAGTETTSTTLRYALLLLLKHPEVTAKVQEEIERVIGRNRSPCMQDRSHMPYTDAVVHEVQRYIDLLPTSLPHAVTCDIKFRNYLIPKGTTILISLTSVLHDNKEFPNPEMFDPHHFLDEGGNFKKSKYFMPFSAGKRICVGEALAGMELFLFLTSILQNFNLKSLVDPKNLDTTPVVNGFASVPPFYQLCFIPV
smiles,measurement,setting,value
COC(=O)c1cc(C(=O)OCC(=O)N2c3ccccc3NC(=O)C2(C)C)cc([N+](=O)[O-])c1,IC50,[1],10.8 µM (active)
C=CCN(c1ccccc1)S(=O)(=O)c1cccc(C(=O)OCC(=O)NCCOC)c1,IC50,[2],> 47.1 µM (inactive)
same,EC50,[3],> 53 µM (inactive)
CCn1c(SCC(=O)Nc2cccc(C)c2)nc2ccccc2c1=O,CC50,[4],> 50 µM (active)
O=C(Nc1cccs1)NC1CCCC1,AC50,[5],1.83 µM (active)
N#Cc1ccc(NC(=O)CN2C(=O)NC3(CCCCCCC3)C2=O)cc1Cl,CC50,[4],30.3 µM (active)
CN1CCN(CC(=O)Nc2cc(N(C)C)nc3ccccc23)CC1,IC50,[2],> 47.1 µM (inactive)
same,EC50,[3],> 53 µM (inactive)
N=C(NNS(=O)(=O)c1ccccc1)c1ccccn1,IC50,[1],23.5 µM (active)
O=C(Nc1ccc(C(=O)N2CCCc3ccccc32)cc1)c1cccs1,CC50,[4],35.4 µM (active)
CCOc1ccc(S(=O)(=O)N(C)CCO)cc1-c1nc(O)c2c(n1)c(C(C)(C)C)nn2C,IC50,[1],> 79 µM (inactive)
CCOC(=O)c1cccc(NC(=O)CSc2nc3ccccc3c(=O)n2CCOC)c1,IC50,[1],> 79 µM (inactive)
Cc1cc(Nc2ccccc2C(=O)O)nc2nc3ccccc3c(=O)n12,IC50,[1],14.2 µM (active)
COc1cccc(C(=O)Nc2c(C(N)=O)oc3ccccc23)c1,IC50,[1],> 79 µM (inactive)
O=S(=O)(c1ccc(F)cc1)N1CCC(c2nc(O)c3nnn(Cc4ccc5c(c4)OCCO5)c3n2)CC1,CC50,[4],19.6 µM (active)
O=C(COc1cccc2c1CCNC2=O)Nc1ccc(Cl)cc1,IC50,[1],11.6 µM (active)
Cc1cc(SCC(=O)Nc2cccc(S(=O)(=O)NC3=NCCCCC3)c2)nc2ccccc12,CC50,[4],40.6 µM (active)
Nc1nc(Cc2ccccc2)nc(Cc2ccccc2)c1-c1ccccc1,AC50,[6],3.16 µM (inconclusive)
same,AC50,[7],3.16 µM (inconclusive)
same,AC50,[8],6.31 µM (inconclusive)
same,AC50,[9],3.16 µM (inconclusive)
same,AC50,[10],1 µM (inconclusive)
Cc1ccc(S(=O)(=O)NC2=NCN(C3CCN(Cc4ccccc4)CC3)CN2)cc1,IC50,[2],> 47.1 µM (inactive)
same,EC50,[3],> 53 µM (inactive)
O=C(NCc1ccc(F)cc1)C(=O)NCC1OCCN1C(=O)c1ccc(Cl)cc1 (stereo not given),IC50,[2],> 47.1 µM (inactive)
same,EC50,[3],> 53 µM (inactive)
FC(F)(F)c1nnc2ccc(N3CCCC3)nn12,IC50,[1],39.7 µM (inactive)
O=Nc1nc2ncccn2c1-c1ccccc1,IC50,[2],> 47.1 µM (inactive)
same,EC50,[3],> 53 µM (inactive)
O=C(N(c1ccccc1)c1ccccc1)N(c1ccccc1)c1ccccc1,CC50,[4],17 µM (active)
Cc1cccc(C)c1NC(=O)c1c(C)nn(-c2ccccc2)c1Cl,CC50,[4],42.5 µM (active)
O=C(C[n+]1ccccc1)N/N=C/c1cccs1,EC50,[11],> 38 µM (not active)
same,EC50,[12],> 150 µM (inactive)
Cc1cc(-n2c(SCC(=O)Nc3ccc(F)c(F)c3)nc3nnc(C)c-3c2N)ccc1Cl,AC50,[13],5.57 µM (active)
O=C(CCCN1C(=O)c2cccc3cccc(c23)C1=O)N1CCN(c2ccc(F)cc2)CC1,CC50,[4],46.2 µM (active)
Cc1ccc(-c2ccc(SCC(=O)NCC3CCCO3)nn2)cc1 (stereo not given),IC50,[2],> 47.1 µM (inactive)
same,EC50,[3],> 53 µM (inactive)
CN(C(=O)CSc1nnc(-c2ccco2)o1)C1CCCCC1,EC50,[11],5.16 µM (active)
same,EC50,[12],> 160 µM (inactive)
CN1c2ccc(C3=CCCCC3)cc2[C@H]2[C@H](CCN2C(=O)C2CC2)[C@@H]1CO,AC50,[14],0.964 µM (active)
CO[C@H]1CN(C)C(=O)c2cc(NC(=O)C3CC3)ccc2OC[C@H](C)N(Cc2cc(F)ccc2F)C[C@@H]1C,AC50,[14],6.44 µM (active)
CCc1nn(CCCC(=O)NCc2ccc(C)cc2)c(=O)c2cc3occc3n12,EC50,[11],> 38 µM (not active)
same,EC50,[12],> 160 µM (inconclusive)
CC(C)(C)[S@+]([O-])N1Cc2cc(C(=O)N[C@H]3CCN(Cc4ccccc4)C3)nc(-c3cccc(-c4ccncc4)c3)c2[C@@H]1CCO,AC50,[14],6.19 µM (active)
Cc1cc(Nc2ccccc2)n(-c2ccc(C(=O)O)cc2)n1,AC50,[5],1.41 µM (active)
COc1ccccc1NC(=O)c1c(NC(=O)CCC(=O)O)sc2c1CCCCC2,AC50,[5],< 0.005 µM (active)
CN1/C(=C\C(=O)C[n+]2ccc(C(=O)c3ccccc3)cc2)C(C)(C)c2ccccc21,AC50,[13],2.42 µM (active)
same,EC50,[11],3.12 µM (active)
same,EC50,[12],> 150 µM (inactive)
COc1ccc(Cl)cc1NC(=O)CN(C)C(=O)Cc1nnc(O)c2ccccc12,IC50,[1],> 79 µM (inactive)
CO[C@@H]1CN(C)C(=O)c2ccc(NC(=O)Nc3ccc(C(F)(F)F)cc3)cc2OC[C@@H](C)NC[C@@H]1C,AC50,[14],4.23 µM (active)
COc1ccc(N(C)S(=O)(=O)c2cccc(C(=O)Nc3nc(C)cs3)c2)cc1,AC50,[5],1.2 µM (active)
Cc1ccc(C(=O)OCC(=O)Nc2sccc2C(N)=O)cc1NC(=O)c1ccco1,IC50,[1],> 79 µM (inactive)
Cc1onc(-c2ccccc2)c1C(=O)OCC(=O)Nc1ccc(C#N)cc1,CC50,[4],8 µM (active)
Oc1c(Br)cc(Br)cc1/C=N/c1ccc2c(c1)OCCO2,IC50,[15],119 µM (active)
same,IC50,[1],17.6 µM (active)
COc1ccc(/N=C/c2cc(Cl)ccc2O)cc1Cl,IC50,[1],17.5 µM (active)
CCCCC(NC(=O)Cc1c(C)c2cc3c(C)c(C)oc3c(C)c2oc1=O)C(=O)O (stereo not given),AC50,[5],> 100 µM (inactive)
C[C@H](CO)N1C[C@H](C)[C@@H](CN(C)C(=O)[C@H](C)c2ccccc2)OCc2ccccc2-c2c(n(C)c3ccccc23)C1=O,AC50,[14],4.07 µM (active)
COC(=O)[C@H](Cc1ccccc1)NC(=O)N1CCN(c2ccc(F)cc2)CC1,AC50,[5],> 100 µM (inactive)
Cc1ccc2[nH]cc(CCNC(=O)c3cccs3)c2c1,AC50,[5],26.2 µM (active)
CC[C@H](C)[C@@H](C(=O)NCCCCCCCCCCC(=O)N1CCN(C(=O)OC(C)(C)C)CC1)n1cc(CCCCCNC(=O)OC(C)(C)C)nn1,AC50,[13],4.08 µM (active)
CCN(CC)c1ccc(NC(=O)C2=CCN(S(=O)(=O)c3ccc(F)cc3)CC2)c(C)c1,AC50,[5],5.05 µM (active)
O=C1N=C(NO)S/C1=C\c1ccccc1-n1cccn1,AC50,[5],4.82 µM (active)
CC(=O)C1=C(C)NC(SCC(=O)c2cc(Cl)ccc2Cl)=C(C#N)C1c1ccco1 (stereo not given),CC50,[4],14.2 µM (active)
